Test [1] deals with T1, Protein deacetylase HDAC6 (Homo sapiens) (UniProt Q9UBN7).
T1 sequence (whole entry): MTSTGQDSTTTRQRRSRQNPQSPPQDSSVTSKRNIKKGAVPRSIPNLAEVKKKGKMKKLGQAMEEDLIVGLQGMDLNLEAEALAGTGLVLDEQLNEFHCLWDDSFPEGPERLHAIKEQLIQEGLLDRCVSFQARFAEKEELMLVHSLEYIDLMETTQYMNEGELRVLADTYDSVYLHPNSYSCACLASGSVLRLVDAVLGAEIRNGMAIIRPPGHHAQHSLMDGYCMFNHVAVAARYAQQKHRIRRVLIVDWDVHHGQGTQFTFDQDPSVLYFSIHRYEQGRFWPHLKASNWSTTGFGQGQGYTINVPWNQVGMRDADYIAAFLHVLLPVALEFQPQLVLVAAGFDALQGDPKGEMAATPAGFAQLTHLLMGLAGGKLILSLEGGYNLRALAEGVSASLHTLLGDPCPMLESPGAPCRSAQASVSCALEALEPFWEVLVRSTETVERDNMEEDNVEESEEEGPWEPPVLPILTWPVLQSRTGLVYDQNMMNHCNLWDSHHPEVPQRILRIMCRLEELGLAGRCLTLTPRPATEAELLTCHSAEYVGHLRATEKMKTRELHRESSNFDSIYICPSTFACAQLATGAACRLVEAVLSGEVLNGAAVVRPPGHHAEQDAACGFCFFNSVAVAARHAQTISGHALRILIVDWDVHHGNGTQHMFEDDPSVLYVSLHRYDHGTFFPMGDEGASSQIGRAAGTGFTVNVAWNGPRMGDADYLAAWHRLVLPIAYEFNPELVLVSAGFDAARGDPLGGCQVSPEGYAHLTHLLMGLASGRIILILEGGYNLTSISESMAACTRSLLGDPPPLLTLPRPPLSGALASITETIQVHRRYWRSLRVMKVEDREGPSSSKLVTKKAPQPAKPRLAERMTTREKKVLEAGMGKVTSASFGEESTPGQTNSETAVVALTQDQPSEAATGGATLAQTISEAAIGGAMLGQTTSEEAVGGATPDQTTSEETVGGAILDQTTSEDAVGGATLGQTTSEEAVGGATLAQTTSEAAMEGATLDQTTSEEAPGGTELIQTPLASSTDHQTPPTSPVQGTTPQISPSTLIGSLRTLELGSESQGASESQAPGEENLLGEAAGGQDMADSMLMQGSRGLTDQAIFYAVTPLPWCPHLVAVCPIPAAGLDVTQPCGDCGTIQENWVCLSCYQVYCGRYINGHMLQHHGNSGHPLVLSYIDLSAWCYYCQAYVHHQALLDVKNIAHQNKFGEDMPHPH
Description: Inhibition of HDAC6 (unknown origin) at 1 uM preincubated for 10 mins followed by substrate addition measured for 1 hr by fluorescence based assay relative to control. Conditions: time 70.0 min.

For test [2], the target named is T2, Protein deacetylase HDAC6 (Homo sapiens, UniProt Q9UBN7).
T2 sequence (Q9UBN7 whole entry): T1 sequence (whole entry)
Description: Inhibition of HDAC6 (unknown origin) preincubated for 10 mins followed by substrate addition measured for 1 hr by fluorescence based assay.

In the next test the target is Histone deacetylase 1 (Homo sapiens, UniProt Q13547). Description: Inhibition of HDAC1 (unknown origin) preincubated for 10 mins followed by substrate addition measured for 1 hr by fluorescence based assay.
Another test deals with HCT-116. Description: Cytotoxicity against human HCT-116 cells assessed as inhibition of cell viability incubated for 24 hrs by CCK8 assay. The note with it: HCT-116, 24 h. It is filed as functional, cell-based.
The next test deals with HCCLM3. Description: Cytotoxicity against human HCCLM3 cells assessed as inhibition of cell viability incubated for 24 hrs by CCK8 assay. It is filed as functional, cell-based. Conditions: HCCLM3, 24 h.
In another test the test system is SGC-7901. Description: Cytotoxicity against human SGC-7901 cells assessed as inhibition of cell viability incubated for 24 hrs by CCK8 assay. It is filed as functional, cell-based. The note with it: SGC-7901, 24 h.
A further test has as its system RPMI-8226. Description: cells. The note with it: Homo sapiens, RPMI-8226, 24 h.
In the next test the test system is MDA-MB-468. Description: cells. The note with it: Homo sapiens, MDA-MB-468, 24 h.

This passage reports inhibition and IC50 results from ChEMBL document CHEMBL5634123, “Design and synthesis of 1H-benzo[d]imidazole selective HDAC6 inhibitors with potential therapy for multiple myeloma” (Eur J Med Chem, 2023).

A value given as a limit tells only on which side of the number the result lay.

Chain of Histone deacetylase 1 (Q13547 whole entry): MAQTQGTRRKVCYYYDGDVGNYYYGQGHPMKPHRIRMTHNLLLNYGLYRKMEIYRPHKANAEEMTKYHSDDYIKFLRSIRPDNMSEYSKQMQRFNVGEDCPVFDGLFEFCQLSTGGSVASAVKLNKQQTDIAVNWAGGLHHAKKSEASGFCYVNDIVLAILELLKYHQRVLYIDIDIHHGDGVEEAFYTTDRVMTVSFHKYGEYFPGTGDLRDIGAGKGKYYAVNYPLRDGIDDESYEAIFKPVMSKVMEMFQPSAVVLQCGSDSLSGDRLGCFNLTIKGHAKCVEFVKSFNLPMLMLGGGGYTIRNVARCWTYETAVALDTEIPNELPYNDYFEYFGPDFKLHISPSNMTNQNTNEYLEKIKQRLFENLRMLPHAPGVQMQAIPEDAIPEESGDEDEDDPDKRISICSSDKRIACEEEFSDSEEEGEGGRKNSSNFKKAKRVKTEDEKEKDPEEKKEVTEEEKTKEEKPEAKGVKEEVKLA

Consider `O=C(NO)c1ccc2ncn(CCc3ccccc3)c2c1`, for which the inhibition in test [1] came out at 23.4%.
`O=C(NO)c1ccc2nc[nH]c2c1`: the results for the 50% inhibitory concentration (IC50) (in test [2]; at Histone deacetylase 1) were 4.35 µM and over 10 µM, respectively.
Consider `Cn1c([C@H](Cc2ccccc2)NCc2ccccc2)nc2cc(C(=O)NO)ccc21`, for which the 50% inhibitory concentration (IC50) was 0.00758 µM in test [2]; 5.52 µM in the test with HCT-116; over 50 µM in the test on HCCLM3; 40.9 µM with SGC-7901; 2.04 µM in the test on RPMI-8226; 44 µM in the test with MDA-MB-468.
As for `Cc1cccc(NCc2nc3cc(C(=O)NO)ccc3n2C)c1`, the half-inhibitory concentration (IC50) was 0.0118 µM in test [2]; 16 µM with HCT-116; over 50 µM in the test with HCCLM3; 27.9 µM in the test on SGC-7901; 1.62 µM in the test with RPMI-8226; over 50 µM in the test on MDA-MB-468.
For the compound `Cn1c(CSc2ccccc2)nc2cc(C(=O)NO)ccc21`, half-maximal inhibition in test [2] (IC50) required 0.0281 µM.
Still for that read-out and setting: the value for `Cn1c(CN2CCCCC2)nc2cc(C(=O)NO)ccc21` was 0.0342 µM.
Consider `CCN(Cc1nc2cc(C(=O)NO)ccc2n1C)c1ccccc1`, for which the half-maximal inhibitory concentration (IC50) was 0.0103 µM in test [2]; 0.5 µM in the test on HCT-116; 4.51 µM with HCCLM3; 4.2 µM in the test with SGC-7901; 1.38 µM in the test with RPMI-8226; over 50 µM with MDA-MB-468.
In the case of `O=C(NO)c1ccc2c(c1)nc(CNc1ccccc1)n2C1CC1`, the IC50 in test [2] came out at 0.898 µM.
Regarding `Cn1c(COc2ccccc2)nc2cc(C(=O)NO)ccc21`, the 50% inhibitory concentration (IC50) in test [2] worked out at 0.0126 µM; in the test on HCT-116, 2.26 µM; in the test with HCCLM3, 8.72 µM; in the test on SGC-7901 it was 9.81 µM; in the test with RPMI-8226, 2.52 µM; in the test on MDA-MB-468, 7.96 µM.
As for `Cc1ccccc1NCc1nc2cc(C(=O)NO)ccc2n1C`, the 50% inhibitory concentration (IC50) in test [2] was 0.0158 µM; in the test on HCT-116, 6.3 µM; in the test on HCCLM3, 15 µM; with SGC-7901, 10.8 µM; in the test on RPMI-8226, 2.19 µM; in the test on MDA-MB-468, 5.53 µM.
In the case of `Cn1c(CNc2ccc(F)cc2)nc2cc(C(=O)NO)ccc21`, in test [2], the 50% inhibitory concentration (IC50) is 0.0184 µM.
`Cn1c(CNc2cccc3ccccc23)nc2cc(C(=O)NO)ccc21`: the concentration for half-maximal inhibition (IC50) was 0.00587 µM in test [2]; 0.834 µM against Histone deacetylase 1; 9.36 µM with HCT-116; 0.781 µM in the test with HCCLM3; 0.518 µM with SGC-7901; 0.32 µM in the test with RPMI-8226. In the test on MDA-MB-468, the IC50 came to 6.73 µM.
Regarding `Cn1c(CN2CCC3(CC2)OCCO3)nc2cc(C(=O)NO)ccc21`, the concentration for half-maximal inhibition (IC50) in test [2] was 0.0364 µM.
As to `C[C@H](NCc1ccccc1)c1nc2cc(C(=O)NO)ccc2n1C`, the IC50 is 0.00922 µM in test [2]; 6.42 µM in the test on HCT-116; 2.42 µM in the test with HCCLM3; 2.4 µM with SGC-7901; 1.05 µM in the test on RPMI-8226; 9.16 µM in the test on MDA-MB-468.
Turning to `O=C(NO)c1ccc2c(c1)ncn2CCc1ccccc1`, the inhibition in test [1] amounted to 70.3%.
As to `Cn1c(CNCc2ccccc2)nc2cc(C(=O)NO)ccc21`, the IC50 stood at 0.0144 µM in test [2]; 0.976 µM at Histone deacetylase 1; 1.33 µM in the test on HCT-116; 2.62 µM in the test on HCCLM3; 5.1 µM in the test on SGC-7901; 0.349 µM with RPMI-8226. Further, it took 10.8 µM to reach half-maximal inhibition in the test on MDA-MB-468 (IC50).
Regarding `Cn1c(CNc2ccccc2F)nc2cc(C(=O)NO)ccc21`, the half-maximal inhibitory concentration (IC50) in test [2] was 0.0138 µM; in the test with HCT-116, over 50 µM; with HCCLM3, 14.5 µM; in the test with SGC-7901 it was 5.81 µM; in the test with RPMI-8226, 2.47 µM; in the test on MDA-MB-468, 8.58 µM.
With `Cn1c(CNc2ccccc2)nc2cc(C(=O)NO)ccc21`, the IC50 was 0.0158 µM in test [2]; 17.2 µM in the test on HCT-116; 41.5 µM in the test with HCCLM3; over 50 µM in the test on SGC-7901; 2.06 µM in the test on RPMI-8226; 9.6 µM in the test on MDA-MB-468.
In test [1], `Cn1c(CNc2ccccc2)nc2ccc(C(=O)NO)cc21` came in with an inhibition of 64.1%.
For the compound `Cn1c(CNc2cccc(F)c2)nc2cc(C(=O)NO)ccc21`, the IC50 is 0.00678 µM in test [2]; 1.43 µM in the test on HCT-116; 5.18 µM in the test with HCCLM3; 13.6 µM with SGC-7901; 1.87 µM with RPMI-8226; 3.76 µM with MDA-MB-468.
In test [2], `O=C(NO)c1ccc2nc(CCc3ccccc3)[nH]c2c1` came in with an IC50 of 0.0692 µM.
As to `CCCCN(Cc1nc2cc(C(=O)NO)ccc2n1C)c1cccc(F)c1`, the IC50 was 0.0128 µM in test [2]; 3.58 µM in the test on HCT-116; 4.43 µM in the test with HCCLM3; 6.53 µM in the test on SGC-7901; 1.33 µM in the test with RPMI-8226; 10.5 µM in the test on MDA-MB-468.
Regarding `CCCCN(Cc1nc2cc(C(=O)NO)ccc2n1C)c1ccccc1`, the IC50 in test [2] was 0.00955 µM; against Histone deacetylase 1, 0.634 µM; in the test on HCT-116, 3.12 µM; in the test on HCCLM3 it was 3.49 µM; with SGC-7901 it was 2.83 µM; in the test on RPMI-8226, 0.934 µM. The compound further gave an IC50 with MDA-MB-468 of 8.17 µM.
`CC(C)n1c(CNc2ccccc2)nc2cc(C(=O)NO)ccc21` had an IC50 in test [2] of 1.51 µM.
As for `C[C@@H](NCc1ccccc1)c1nc2cc(C(=O)NO)ccc2n1C`, the IC50 was 0.00583 µM in test [2]; 0.841 µM at Histone deacetylase 1; 0.508 µM in the test on HCT-116; 1.45 µM in the test on HCCLM3; 1.65 µM with SGC-7901; 0.709 µM in the test on RPMI-8226. In the test with MDA-MB-468, the IC50 came out at 6.01 µM.
Consider `CN(Cc1nc2cc(C(=O)NO)ccc2n1C)c1ccccc1`, for which the half-maximal inhibitory concentration (IC50) in test [2] worked out at 0.00891 µM; at Histone deacetylase 1 it was 0.567 µM; in the test on HCT-116, 9.95 µM; in the test with HCCLM3, 6.69 µM; in the test on SGC-7901, 3.69 µM; in the test on RPMI-8226 it was 0.661 µM. The compound further gave a 50% inhibitory concentration (IC50) in the test with MDA-MB-468 of 4.93 µM.
As for `CCCN(Cc1nc2cc(C(=O)NO)ccc2n1C)c1ccccc1`, the IC50 is 0.0128 µM in test [2]; 2.06 µM in the test with HCT-116; 4.8 µM in the test on HCCLM3; 8.69 µM in the test on SGC-7901; 2.39 µM in the test with RPMI-8226; over 50 µM in the test on MDA-MB-468.
Compound `Cc1ccc(NCc2nc3cc(C(=O)NO)ccc3n2C)cc1` yielded a 50% inhibitory concentration (IC50) in test [2] of 0.0194 µM.
On the same count and under the same terms, the same measure for `CCn1c(CNc2ccccc2)nc2cc(C(=O)NO)ccc21`: 0.853 µM.
